According to patent US5399565A, “Pyrazolidinone CCK and gastrin antagonists and pharmaceutical formulations therof” (priority 1993, dated 1995):
Like-named read-outs stand apart in the source and are kept apart here.

Key:
brain CCK receptor = target: T1, brain CCK receptor (Mus musculus, UniProt P56481); experiment: CCK receptor binding, mouse brain membranes (125I-CCK-8 sulfate); conditions: for inhibition at 10 µM / inhibition at 1 µM: read-out: Brain Percent Inhibition
T1 construct: from tissue; host or cells: forebrain membranes of male CF-1 mice
T1 sequence (P56481 1-453): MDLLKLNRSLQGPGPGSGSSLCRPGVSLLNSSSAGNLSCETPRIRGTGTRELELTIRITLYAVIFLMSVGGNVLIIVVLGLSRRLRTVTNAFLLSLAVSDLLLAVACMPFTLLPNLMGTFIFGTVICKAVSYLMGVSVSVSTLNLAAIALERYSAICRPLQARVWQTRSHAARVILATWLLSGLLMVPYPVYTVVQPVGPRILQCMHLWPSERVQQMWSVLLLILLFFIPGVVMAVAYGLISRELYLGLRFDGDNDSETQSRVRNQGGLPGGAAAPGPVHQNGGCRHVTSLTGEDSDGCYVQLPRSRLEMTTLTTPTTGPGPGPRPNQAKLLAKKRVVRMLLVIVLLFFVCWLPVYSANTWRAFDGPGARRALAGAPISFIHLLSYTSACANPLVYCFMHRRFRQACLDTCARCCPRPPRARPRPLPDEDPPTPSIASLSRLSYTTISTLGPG

[1] = target: T2, peripheral type CCK receptors in rat pancreas (Rattus norvegicus, UniProt P30551); experiment: Binding to peripheral type CCK receptors in rat pancreas (3H-L-364,718); conditions: for IC50: rat pancreas
T2 construct: Pancreas was obtained from male Sprague-Dawley rats; from tissue; host or cells: pancreas membranes of male Sprague-Dawley rats
T2 sequence (P30551 1-444): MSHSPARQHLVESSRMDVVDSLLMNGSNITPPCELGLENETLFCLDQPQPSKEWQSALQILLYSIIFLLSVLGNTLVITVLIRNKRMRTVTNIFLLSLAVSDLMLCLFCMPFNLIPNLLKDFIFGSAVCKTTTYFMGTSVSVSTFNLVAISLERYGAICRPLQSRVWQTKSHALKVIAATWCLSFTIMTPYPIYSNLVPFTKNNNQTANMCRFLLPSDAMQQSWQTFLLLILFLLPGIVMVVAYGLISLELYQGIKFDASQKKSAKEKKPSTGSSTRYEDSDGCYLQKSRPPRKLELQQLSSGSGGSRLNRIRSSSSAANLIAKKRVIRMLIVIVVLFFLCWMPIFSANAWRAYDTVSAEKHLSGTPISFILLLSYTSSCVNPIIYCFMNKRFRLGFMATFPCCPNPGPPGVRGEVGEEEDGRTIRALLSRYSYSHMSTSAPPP
Procedure, shortened: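 Washed pancreatic membranes from male Sprague-Dawley rats (150-200 g) incubated 1 h at room temperature with 0.4-0.6 nM ³H-L-364,718 in 50 mM Tris pH 7.4, 5 mM MgCl2, bacitracin, 5 mM DTT. Bound radioactivity counted after filtration; nonspecific binding defined with 100 nM L-364,718; IC50 determined.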

gastrin receptor = target: T3, gastrin receptor (Cavia porcellus, UniProt H0VZC5); experiment: Gastrin binding to guinea pig stomach mucosal membranes (125I-gastrin I)
T3 construct: Guinea pig stomach fundus was obtained from male Hartley guinea pigs; from tissue; host or cells: stomach fundus mucosal membranes of male Hartley guinea pigs
T3 sequence (H0VZC5 1-426): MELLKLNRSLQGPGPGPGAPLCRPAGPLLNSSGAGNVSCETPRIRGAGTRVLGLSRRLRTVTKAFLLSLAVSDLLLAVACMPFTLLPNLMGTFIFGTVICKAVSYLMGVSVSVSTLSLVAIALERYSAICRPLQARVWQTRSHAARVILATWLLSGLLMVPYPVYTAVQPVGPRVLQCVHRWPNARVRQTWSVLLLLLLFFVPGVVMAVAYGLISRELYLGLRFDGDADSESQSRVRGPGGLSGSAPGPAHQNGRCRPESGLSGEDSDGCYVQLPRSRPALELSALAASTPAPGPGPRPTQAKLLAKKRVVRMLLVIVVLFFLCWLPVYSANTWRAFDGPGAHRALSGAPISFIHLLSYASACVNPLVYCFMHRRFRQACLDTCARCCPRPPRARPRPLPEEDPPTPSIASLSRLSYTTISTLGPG
Description: The method used for gastrin binding to guinea pig stomach mucosal membranes was similar to that described by Takeuchi, Speir and Johnson (Am. J. Physiol. 237(3): E284-E294, 1979). Guinea pig stomach fundus was obtained from male Hartley guinea pigs, 300-350 g, and the mucosa was scraped off with a glass slide. The mucosa was homogenized in 50 mM Tris buffer, pH 7.4, containing 1 mM phenylmethanesulfonyl fluoride using a Dounce glass homogenizer, and the suspension was centrifuged at 40,000 g for 10 min. The resulting pellet was resuspended and centrifuged once more, the final pellet was then suspended in 100 ml assay buffer per 1 guinea pig stomach to give a protein concentration of 200-300 μg/200 μl. The assay buffer consisted of 50 mM Tris buffer, pH 7.4, 5 mM MgCl2, 0.14 mg/ml bacitracin, and 1 μg/ml each of leupeptin, chymostatin, aprotinin and pepstatin. Reagent volumes for the assay were the same as those used for CCK binding to brain membranes. The radioactive ligand was 20 pM ^125 I-gastrin I, from DuPont NEN (NEX-176). The samples were incubated 3 hours at room temperature and filtered and counted as described for CCK binding to brain membranes. Compound samples were prepared and IC-50 values were determined as described for the CCK-brain receptor binding. Non-specific binding was determined using 100 nM gastrin I (human synthetic from Sigma Chemical Co.).

[2] = mouse brain membranes, read-out: Brain IC50
[3] = at 10 μM, read-out: Pancreas Percent Inhibition
[4] = guinea pig stomach mucosal membranes, read-out: Gastrin IC50

| IC50 (brain CCK receptor; [2]) [µM] | inhibition at 10 µM [1, 3] [%] | IC50 (gastrin receptor; [4]) [µM] | Structure (SMILES) | also measured |
| --- | --- | --- | --- | --- |
| 0.012 | 61 | 0.062 | O=C1NN(C(=O)Nc2ccc(Cl)c(C(F)(F)F)c2)C(c2ccccc2)C1c1ccccc1Cl (centres unmarked) [Example 131] | – |
| 0.031 | 80 | 0.23 | O=C1NN(C(=O)Nc2ccc(Br)cc2)[C@@H](c2cccc(Cl)c2Cl)[C@@H]1c1ccccc1 (relative stereo) [Example 116] | – |
| 0.007 | – | 0.13 | O=C1NN(C(=O)Nc2ccc(C(F)(F)F)cc2)C(c2ccccc2Cl)C1c1ccccc1 (centres unmarked) [Example 110] | Pancreas Percent Inhibition ([1]; at 10 μM): 47% |
| 0.02 | 38 | 0.36 | O=C1NN(C(=O)Nc2ccc(Br)cc2)C(c2ccccc2Cl)C1c1ccccc1 (centres unmarked) [Example 114] | – |
| 0.032 | 73 | 0.21 | O=C1NN(C(=O)Nc2ccc(Br)cc2)C(c2ccccc2)C1c1cccc(Br)c1 (centres unmarked) [Example 127] | – |
| 0.15 | 53 | 0.32 | COc1ccccc1C1C(c2ccccc2)C(=O)NN1C(=O)Nc1ccc(Br)cc1 (centres unmarked) [Example 115] | – |
| 0.36 | 41 | 5.2 | NC(=O)c1cccc(C2C(c3ccccc3)C(=O)NN2C(=O)Nc2ccc(Br)cc2)c1 (centres unmarked) [Example 118] | – |
| 0.025 | 47 | 0.26 | CC(C)c1ccc(NC(=O)N2NC(=O)[C@@H](c3ccccc3)[C@@H]2c2ccccc2)cc1 (relative stereo) [Example 29] | – |
| 0.014 | 26 | 0.12 | CC(C)c1ccc(NC(=O)N2NC(=O)C(c3ccccc3)C2c2ccccc2Cl)cc1 (centres unmarked) [Example 121] | – |
| 0.14 | 18 | 1.7 | O=C1NN(C(=O)Nc2ccc(Br)cc2)C(c2cccnc2)C1c1ccccc1 (centres unmarked) [Example 135] | – |
| 0.031 | – | 0.49 | O=C1NN(C(=O)Nc2ccc(Br)cc2)[C@@H](c2ccccc2)[C@@H]1c1ccccc1 (relative stereo) [Example 20] | IC50 [1]: 11.6 µM |
| 0.006 | – | 0.025 | O=C1NN(C(=O)Nc2ccc(Br)cc2)[C@@H](c2ccccc2Cl)[C@@H]1c1ccccc1Cl (relative stereo) [Example 133] | IC50 [1]: 7.9 µM |
| 0.033 | 75 | 0.093 | O=C1NN(C(=O)Nc2ccc(Br)cc2)C(c2ccccc2)C1c1cccc2ccccc12 (centres unmarked) [Example 134] | – |
| 0.056 | 53 | 0.24 | CSc1ccc(NC(=O)N2NC(=O)[C@@H](c3ccccc3)[C@@H]2c2ccccc2)cc1 (relative stereo) [Example 38] | – |
| 0.16 | 69 | 0.86 | O=C1NN(C(=O)Nc2ccc(Br)cc2)C(c2ccccc2)C1c1ccc(Cl)cc1 (centres unmarked) [Example 129] | – |
| 0.29 | 75 | 0.66 | O=C1NN(C(=O)Nc2ccc3ncccc3c2)[C@@H](c2ccccc2)[C@@H]1c1ccccc1 (relative stereo) [Example 93] | – |
| 0.008 | 48 | 0.07 | CC(C)c1ccc(NC(=O)N2NC(=O)C(c3ccccc3Cl)C2c2ccccc2)cc1 (centres unmarked) [Example 132] | – |

| IC50 (brain CCK receptor; [2]) [µM] | inhibition at 10 µM [1, 3] [%] | IC50 (gastrin receptor; [4]) [µM] | Structure (SMILES) | also measured |
| --- | --- | --- | --- | --- |
| 0.1 | 42 | 0.59 | O=C1NN(C(=O)Nc2ccc(Br)cc2)C(c2ccccc2)C1c1cccc([N+](=O)[O-])c1 (centres unmarked) [Example 125] | – |
| 0.064 | 88 | 0.16 | O=C1NN(C(=O)Nc2cnc3ccccc3c2)[C@@H](c2ccccc2)[C@@H]1c1ccccc1 (relative stereo) [Example 92] | – |
| 0.15 | 36 | 0.73 | CC(C)Oc1cccc(C2C(=O)NN(C(=O)Nc3ccc(Br)cc3)C2c2ccccc2)c1 (centres unmarked) [Example 124] | – |
| 0.022 | – | – | O=C1NN(C(=O)Nc2ccc(Br)c(C(F)(F)F)c2)[C@H](c2ccccc2)[C@H]1c1ccccc1 (relative stereo) [Example 45] | IC50 [1]: 0.16 µM |
| 5.3 | – | – | O=C1NN(C(=S)Nc2cccc(Cl)c2Cl)[C@H](c2ccccc2)[C@H]1c1ccccc1 (relative stereo) [Example 64] | inhibition at 1 µM ([1]; at 1 μM, read-out: Pancreas Percent Inhibition): 34% |
| – | 4 | – | O=C1NN(C(=O)Cc2cccc(C(F)(F)F)c2)[C@H](c2ccccc2)[C@H]1c1ccccc1 (relative stereo) [Example 76] | inhibition at 10 µM (brain CCK receptor): 55% |
| – | 21 | – | O=C1NN(C(=O)Nc2ccncc2)[C@@H](c2ccccc2)[C@@H]1c1ccccc1 (relative stereo) [Example 89] | inhibition at 10 µM (brain CCK receptor): 34% |
| 0.52 | 6 | – | O=C1NN(C(=O)Nc2ccc(F)cc2)[C@@H](c2ccccc2)[C@@H]1c1ccccc1 (relative stereo) [Example 17] | – |
| 1 | 45 | – | O=C1NN(C(=O)Nc2cc(C(F)(F)F)ccc2Cl)[C@H](c2ccccc2)[C@H]1c1ccccc1 (relative stereo) [Example 57] | – |
| – | 75 | – | O=C1NN(C(=O)Nc2cc(Cl)cc(Cl)c2)[C@H](c2ccccc2)[C@H]1c1ccccc1 (relative stereo) [Example 59] | inhibition at 1 µM (brain CCK receptor): 44% |
| 0.15 | 45 | – | O=C1NN(C(=O)Nc2ccc([N+](=O)[O-])cc2)[C@@H](c2ccccc2)[C@@H]1c1ccccc1 (relative stereo) [Example 24] | – |
| – | 18 | – | O=C1NN(C(=O)NC2CCCCC2)[C@@H](c2ccccc2)[C@@H]1c1ccccc1 (relative stereo) [Example 95] | inhibition at 10 µM (brain CCK receptor): 55% |
| 0.08 | 98 | – | O=C1NN(C(=O)Nc2ccc(Cl)c([N+](=O)[O-])c2)[C@H](c2ccccc2)[C@H]1c1ccccc1 (relative stereo) [Example 48] | – |
| – | 27 | – | CCOC(=O)c1ccc(NC(=O)N2NC(=O)[C@@H](c3ccccc3)[C@@H]2c2ccccc2)cc1 (relative stereo) [Example 22] | inhibition at 1 µM (brain CCK receptor): 42% |
| 0.5 | 12 | – | CCCCC1C(=O)NN(C(=O)Nc2ccc(Br)cc2)C1c1ccccc1 (centres unmarked) [Example 69] | – |
| 0.45 | 33 | – | O=C1NN(C(=O)Nc2ccc(OCCc3ccccc3)cc2)[C@@H](c2ccccc2)[C@@H]1c1ccccc1 (relative stereo) [Example 36] | – |

| Structure (SMILES) | IC50 (brain CCK receptor; [2]) [µM] | inhibition at 10 µM [1, 3] [%] | IC50 (gastrin receptor; [4]) [µM] | also measured |
| --- | --- | --- | --- | --- |
| O=C1NN(C(=O)Nc2ccc(C(F)(F)F)cc2)C(c2ccccc2)C1c1ccccc1Cl (centres unmarked) [Example 130] | – | 42 | – | IC50 (brain CCK receptor; Brain IC50, mouse brain membranes): 0.012 µM; IC50 (gastrin receptor): 0.1 µM |
